{"source": "patent US5434053A", "about": "“Detection of antibiotics” (Gist-Brocades N.V., priority 1992, dated 1995)", "key": {"[1]": {"system": "antibiotic binding protein", "assay": "Antibiotic residue test for β-lactams in milk (sequential assay; HRPO-labelled antibiotic binding protein, immobilized 7ACA-spacer-BSA)", "design": "species or system Bacillus stearothermophilus", "settings": "for sensitivity ppb: test according to Example 1, other β-lactams; for reader units expressed in %: measured at 650 nanometer", "experimental": "A grown culture of an antibiotic sensitive microorganism in this example Bacillus stearothermophilus (continuous culture art. #108 Porton Products Ltd, UK) was lysed overnight at 4° C. with lysozyme, DNAse and triton X-100 in 0.1M phosphate pH 7.0. The lysate was centrifuged for 30 minutes at approximately 1600×g (4° C.). After centrifugation the supernatant was mixed with an antibiotic affinity gel matrix, for example to prepare a 7-aminocephalosporanic acid (7ACA) affinity gel matrix the following method was used.\nThe 7ACA-affigel and the supernatant of the lysed culture was mixed for 3 hours at 20° C. gently on a shaker. The gel was washed six times with 0.1M phosphate+1M NaCl pH 7.0. For each wash was used 500 ml.\nIn this example horse-radish peroxidase (HRPO) is used. 1 mg HRPO (suitable for labelling) in 1 ml of distilled water (d.i.-water) and 0.2 ml 0.1M Na-periodate was mixed 20 minutes at 20° C. and dialysed overnight at 4° C. against 0.001M Na-acetate pH 4.4. This dialysate was adjusted to pH 9.0-9.6 by adding 25 μl of 0.1M carbonate. Directly hereafter 1 mg abp (Pierce protein assay) was added into the dialysate. The mixture was gently shaken for 2 hours at room temperature. Thereafter 150 μl of 4 mg Na-borohydride/ml d.i.-water was added to the mixture, this was incubated for 2 hours at 4° C.\n40 mg of 7ACA was added to 4 ml of 50 mM Hepes (pH 7.5) solution. After dissolving the pH was adjusted to pH 7.0 with 1N NaOH. Hereafter 20 mg BSA and 40 mg Bis(sulfosuccinicmidyl)suberate (spacer) and an extra 2 ml of 50 mM Hepes solution was added. The mixture was gently shaken for 45 minutes at 20° C.\n0.125 ml dialysate (7ACA-spacer-BSA conjugate) was added to 500 ml carbonate pH 9.6. 0.5 ml of this solution was added to the polystyrene star tubes (NUNC MAXISORB®). Tubes were covered and incubated overnight at 4° C. After incubation the β-lactam spacer protein conjugate dilution was removed from the tubes and 2 ml 0.05M phosphate+0.5% BSA+2% sucrose+0.1M glycine pH 7.2 was added to each tube. After 1 hour at 20° C. the tubes were emptied and dried for 48 hours at 22°-27° C. with less than 30% humidity. Dried tubes are stable for at least 1 year at 4° C.\n0.2 ml of milk sample and 0,2 ml of a diluted abp-enzyme conjugate was added to an empty reaction ampoule. After incubation for 2 minutes at 64° C. the contents of the tube was transferred to the coated tube. After the second incubation of 2 minutes at 64° C. the contents of the coated tube was dumped into the sink and the tubes were washed three times with 50×diluted wash solution by filling the tubes, dumping the contents into the sink and removing residuals by tapping on absorbent paper. After the wash, 0.5 ml of TM-blue® colour-substrate was added into the tube. This incubation for 4 minutes at room temperature was stopped by adding 0.5 ml of stop solution (1.5% NaF). The colour development at 650 nm was compared with an antibiotic standard tested along with the sample."}, "[2]": {"system": "anti-gentamycin-rabbit antibody", "assay": "Antibiotic residue test for gentamycin in milk (sequential assay; antibody/HRPO-protein A conjugate, immobilized gentamycin-spacer-BSA)", "assay_type": "binding", "settings": "for reader units expressed in %: measured at 650 nanometer", "experimental": "The gentamycin assay is in general developed with the same basics as the β-lactam-assay. We will therefore give in this example the same outline as the β-lactam assay of Example 1 with description of differences.\nA commercial anti-gentamycin-rabbit antibody is obtained from Biodesign International, Kennebunkport, Me., U.S.A. The anti-gentamycin-rabbit antiserum is absorbed to remove the bovine serum albumin (BSA) carrier antibodies. A solution containing 10 mg/ml sulfosuccinicmidylsuberate-BSA and 2 mg of unreacted BSA is mixed with the raw antiserum in the ratio of 10 to 1. This removes all detectable reactivity with BSA.\nAbsorbed anti-gentamycin antiserum is reacted with horseradish peroxidase labelled Staphylococcus aureus protein A to form an antibiotic binding protein enzyme conjugate. An optimal ratio of antibody to protein A is determined by forming the assay with checkerboard titrations of the two components diluted in phosphate buffered saline containing 1% BSA.\nIn this example gentamycin is used for conjugation to Bovine Serum Albumin (BSA). A spacer between gentamycin and the BSA is used to obtain the best affinity and specificity. The spacer is the same as used in Example 1.\nAs described in the β-lactam test, the gentamycin-spacer-protein conjugate is coated to a solid phase.\nThe same test method as described in Example 1 for the β-lactam test can be used for the gentamycin test. However, this test uses all incubations at a temperature of 20° C."}}}
{"compound": "CC1(C)S[C@@H]2[C@H](NC(=O)[C@H](N)c3ccc(O)cc3)C(=O)N2[C@H]1C(=O)O", "note": "[Amoxicillin]", "values": [{"measurement": "sensitivity ppb", "setting": "[1]", "result": 5, "unit": "ppb"}]}
{"compound": "CC1(C)S[C@@H]2[C@H](NC(=O)[C@H](N)c3ccccc3)C(=O)N2[C@H]1C(=O)O", "note": "[Ampicillin]", "values": [{"measurement": "sensitivity ppb", "setting": "[1]", "result": 10, "unit": "ppb"}]}
{"compound": "CO/N=C(\\C(=O)N[C@@H]1C(=O)N2C(C(=O)O)=C(CSC(=O)c3ccco3)CS[C@H]12)c1csc(N)n1", "note": "[Ceftiofur]", "values": [{"measurement": "sensitivity ppb", "setting": "[1]", "result": 5, "unit": "ppb"}]}
{"compound": "CC(=O)OCC1=C(C(=O)O)N2C(=O)[C@@H](NC(=O)CSc3ccncc3)[C@H]2SC1", "note": "[Cephapirin]", "values": [{"measurement": "sensitivity ppb", "setting": "[1]", "result": 5, "unit": "ppb"}]}
{"compound": "CC1(C)S[C@@H]2[C@H](NC(=O)Cc3ccccc3)C(=O)N2[C@H]1C(=O)O", "note": "[Pen. G, benzylpenicillin]", "values": [{"measurement": "reader units expressed in %", "setting": "[1]; 1.25 ppb Pen. G present in sample, milk", "result": 96, "unit": "%"}, {"measurement": "reader units expressed in %", "setting": "[1]; 2 ppb Pen. G present in sample, milk", "result": 69, "unit": "%"}, {"measurement": "reader units expressed in %", "setting": "[1]; 3 ppb Pen. G present in sample, milk", "result": 65, "unit": "%"}, {"measurement": "reader units expressed in %", "setting": "[1]; 4 ppb Pen. G present in sample, milk", "result": 51, "unit": "%"}, {"measurement": "reader units expressed in %", "setting": "[1]; 5 ppb Pen. G present in sample, milk", "result": 47, "unit": "%"}, {"measurement": "reader units expressed in %", "setting": "[1]; 10 ppb Pen. G present in sample, milk", "result": 32, "unit": "%"}, {"measurement": "lowest detectable benzylpenicillin residue (test sensitivity)", "setting": "[1]; milk, total incubation time 8 minutes (test time not exceeding about 12 minutes)", "result": 5, "unit": "ppb"}]}
{"compound": "gentamycin [gentamycine]", "values": [{"measurement": "reader units expressed in %", "setting": "[2]; 2.5 ppb gentamycine present in sample", "result": 55, "unit": "%"}, {"measurement": "reader units expressed in %", "setting": "[2]; 5 ppb gentamycine present in sample", "result": 39, "unit": "%"}, {"measurement": "reader units expressed in %", "setting": "[2]; 10 ppb gentamycine present in sample", "result": 31, "unit": "%"}, {"measurement": "reader units expressed in %", "setting": "[2]; 20 ppb gentamycine present in sample", "result": 23, "unit": "%"}, {"measurement": "reader units expressed in %", "setting": "[2]; 30 ppb gentamycine present in sample", "result": 20, "unit": "%"}, {"measurement": "reader units expressed in %", "setting": "[2]; 36 ppb gentamycine present in sample", "result": 18, "unit": "%"}, {"measurement": "detectable gentamycin residue, can be lowered to (referred to Table III)", "setting": "[2]; milk, all incubations at 20° C.", "result": 2.5, "unit": "ppb"}, {"measurement": "lowest detectable gentamycin residue", "setting": "[2]; milk, total incubation time 8 minutes, all incubations at 20° C.", "result": 30, "unit": "ppb"}]}
